Assay results as given in ChEMBL document CHEMBL5352409, “Design, synthesis, and pharmacological evaluation of 2-(1-(1,3,4-thiadiazol-2-yl)piperidin-4-yl)ethan-1-ol analogs as novel glutaminase 1 inhibitors” (Eur J Med Chem, 2022).
Calls of active or inactive are those of the source. The rule behind the calls is not given here.

Columns and labels:
A549 [1] = test: Induction of cell cycle arrest in human A549 cells assessed as accumulation of cells at G2/M phase at 800 nM incubated for 48 hrs by propidium iodide staining based flow cytometry analysis (Rvb=23.88%); assay type: functional
A549 [2] = test: Induction of cell cycle arrest in human A549 cells assessed as accumulation of cells at G2/M phase at 200 nM incubated for 48 hrs by propidium iodide staining based flow cytometry analysis (Rvb=23.88%); assay type: functional
A549 [3] = test: Inhibition of colony formation in human A549 cells at 2 to 8 uM; assay type: functional, cell-based; conditions: dose 2-8 µM
[4] = Terminal half life in rat at 3 mg/kg, iv; assay type: ADME, organism-based; conditions: in vivo, read-out: beta t1/2 (converted)
A549 [5] = test: Induction of cell cycle arrest in human A549 cells assessed as accumulation of cells at G2/M phase at 100 nM incubated for 48 hrs by propidium iodide staining based flow cytometry analysis (Rvb=23.88%); assay type: functional
A549 [6] = test: Induction of apoptosis in human A549 cells assessed as late apoptotic cells at 5 uM incubated for 48 hrs by annexin V-FITC and propidium iodide based flow cytometry analysis (Rvb =9.696%); assay type: functional
A549 [7] = test: Induction of intracellular ROS production in human A549 cells by DCFH-DA staining based fluorescence microscopic analysis; assay type: functional, cell-based; conditions: dose 1-10 µM
HCT-116 = test: Antitumor activity against human HCT-116 cells xenografted in mouse model assessed as reduction in tumor cells at 100 mg/kg administered via oral gavage for 28 days; assay type: functional, organism-based; conditions: time 28.0 day
[8] = Clearance in rat at 3 mg/kg, po; assay type: ADME, organism-based; conditions: in vivo
A549 [9] = test: Induction of apoptosis in human A549 cells assessed as late apoptotic cells at 1 uM incubated for 48 hrs by annexin V-FITC and propidium iodide based flow cytometry analysis (Rvb =9.696%); assay type: functional
A549 [10] = test: Induction of cell cycle arrest in human A549 cells assessed as accumulation of cells at G0/G1 phase at 100 nM incubated for 48 hrs by propidium iodide staining based flow cytometry analysis (Rvb=61.61%); assay type: functional
[11] = Cmax in rat at 3 mg/kg, iv; assay type: ADME, organism-based; parameters: dose 3 mg/kg, route iv; conditions: in vivo
[12] = molecular target: T1, Glutaminase liver isoform, mitochondrial (Homo sapiens, UniProt Q9UI32); test: Inhibition of GLS2 (unknown origin)
T1 sequence (Q9UI32 whole entry): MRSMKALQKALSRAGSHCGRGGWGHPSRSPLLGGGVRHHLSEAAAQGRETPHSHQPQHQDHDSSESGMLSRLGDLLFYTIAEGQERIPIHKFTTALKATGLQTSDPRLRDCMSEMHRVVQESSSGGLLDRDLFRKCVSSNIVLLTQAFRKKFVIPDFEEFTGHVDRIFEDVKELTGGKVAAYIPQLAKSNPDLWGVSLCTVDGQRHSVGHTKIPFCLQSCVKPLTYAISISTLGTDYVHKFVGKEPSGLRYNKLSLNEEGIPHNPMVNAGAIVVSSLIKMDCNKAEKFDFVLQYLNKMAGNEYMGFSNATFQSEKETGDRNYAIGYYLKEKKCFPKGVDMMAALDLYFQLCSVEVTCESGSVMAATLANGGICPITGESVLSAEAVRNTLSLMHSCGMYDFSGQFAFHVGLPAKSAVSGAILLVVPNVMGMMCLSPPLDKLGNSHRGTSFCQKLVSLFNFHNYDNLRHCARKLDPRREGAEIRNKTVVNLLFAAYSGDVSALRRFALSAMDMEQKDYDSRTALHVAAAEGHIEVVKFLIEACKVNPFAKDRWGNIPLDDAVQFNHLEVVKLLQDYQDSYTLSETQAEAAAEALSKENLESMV

half-life [4]: 9.9 h
CL [8]: 557 mL/min/kg
Cmax [11]: 699 ng/mL
IC50 [12]: > 15 µM
SMILES: CCCCCCN1CCC(CNC(=O)c2cccc(COCCC3CCN(c4nnc(NC(=O)Cc5ccccc5)s4)CC3)c2)CC1
Activity (A549 [1]): 19.67%
Activity (A549 [2]): 19.72%
inhibition (A549 [3]): Active
Activity (A549 [5]): 17.3%
Activity (A549 [6]): 16.368%
Activity (A549 [7]): Dose-Dependent Effect
Activity (HCT-116): Active
Activity (A549 [9]): 7.018%
Activity (A549 [10]): 64.94%
